Several values for one entry are separate records, joined by “and”; a condition that tells them apart may be missing. Equal entries are not always repeated. Toxic doses and inconclusive results are not listed. The calls were made as follows: active = survival T/C of 150% or more; inactive = T/C below 125% in these data.
Tested on: CD2F1 mice, L1210 leukemia ip, survival T/C
Assay: NCI In Vivo Anticancer Drug Screen. Data for tumor model L1210 Leukemia (intraperitoneal) in CD2F1 (CDF1) mice
Settings: higher = longer survival
Procedure, shortened: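 Ratio T/C, where T is the treated-group value and C the vehicle-dosed control value, from mice implanted with a transplantable tumor.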

[1] = endpoint: mean survival time, dose: 100.0 mg/kg/injection, schedule: Q01DX009 (ip), vehicle: saline with Tween-80
[2] = endpoint: mean survival time, dose: 100.0 mg/kg/injection, schedule: Q04DX003 (ip), vehicle: saline with Tween-80
[3] = endpoint: mean survival time, dose: 200.0 mg/kg/injection, schedule: Q01DX009 (ip), vehicle: saline with Tween-80
[4] = endpoint: mean survival time, dose: 200.0 mg/kg/injection, schedule: Q04DX003 (ip), vehicle: saline with Tween-80
[5] = endpoint: mean survival time, dose: 400.0 mg/kg/injection, schedule: Q01DX009 (ip), vehicle: saline with Tween-80
[6] = endpoint: mean survival time, dose: 400.0 mg/kg/injection, schedule: Q04DX003 (ip), vehicle: saline with Tween-80
[7] = endpoint: mean survival time, dose: 25.0 mg/kg/injection, schedule: Q04DX002 (ip), vehicle: saline with Tween-80
[8] = endpoint: mean survival time, dose: 100.0 mg/kg/injection, schedule: Q04DX002 (ip), vehicle: saline with Tween-80
[9] = endpoint: mean survival time, dose: 200.0 mg/kg/injection, schedule: Q04DX002 (ip), vehicle: saline with Tween-80
[10] = endpoint: mean survival time, dose: 50.0 mg/kg/injection, schedule: Q01DX009 (ip), vehicle: saline with Tween-80
[11] = endpoint: mean survival time, dose: 100.0 mg/kg/injection, schedule: Q01DX001 (ip), vehicle: saline with Tween-80
[12] = endpoint: mean survival time, dose: 400.0 mg/kg/injection, schedule: Q01DX001 (ip), vehicle: saline with Tween-80
[13] = endpoint: mean survival time, dose: 200.0 mg/kg/injection, schedule: Q01DX001 (ip), vehicle: saline with Tween-80

Measured: T/C

CC[N+](CC)=c1ccc2nc3c(cc(N)c4ccccc43)oc-2c1
inactive: endpoint: mean survival time, dose: 6.25 mg/kg/injection, schedule: Q01DX009 (ip), vehicle: saline sonified 97 % of control | endpoint: mean survival time, dose: 6.25 mg/kg/injection, schedule: Q04DX003 (ip), vehicle: saline with Tween-80 101 % of control | endpoint: mean survival time, dose: 12.5 mg/kg/injection, schedule: Q01DX009 (ip), vehicle: saline sonified 104 % of control | endpoint: mean survival time, dose: 12.5 mg/kg/injection, schedule: Q04DX003 (ip), vehicle: saline with Tween-80 101 % of control | endpoint: mean survival time, dose: 25.0 mg/kg/injection, schedule: Q04DX003 (ip), vehicle: saline with Tween-80 98 % of control

CC(=O)C(c1ccccc1)C(c1ccccc1)P(=O)(c1ccccc1)c1ccccc1 (centres undefined)
inactive: [1] 87 % of control | [2] 97 % of control | [3] 90 % of control | [4] 94 % of control | [5] 96 % of control | [6] 87 % of control

O=C(CCl)c1ccc(O)c(O)c1
inactive: endpoint: mean survival time, dose: 6.25 mg/kg/injection, schedule: Q04DX003 (ip), vehicle: saline 94 % of control | endpoint: mean survival time, dose: 12.5 mg/kg/injection, schedule: Q04DX003 (ip), vehicle: saline 92 % of control | endpoint: mean survival time, dose: 25.0 mg/kg/injection, schedule: Q04DX003 (ip), vehicle: saline 92 % of control

CN=C1C=C/C(=N/N=c2/ccn(O)cc2C)C=C1C
inactive: [7] 106 % of control | endpoint: mean survival time, dose: 50.0 mg/kg/injection, schedule: Q04DX002 (ip), vehicle: saline with Tween-80 95 % of control | [8] 111 % of control

CS/C([S-])=N/N=C/c1ccccn1.[Cl][Pt+]
inactive: [2] 94 % of control | [4] 100 % of control

COC(=O)c1cc2ccccc2[nH]c1=O
inactive: endpoint: mean survival time, dose: 75.0 mg/kg/injection, schedule: Q01DX001 (ip), vehicle: other 97 % of control | endpoint: mean survival time, dose: 150.0 mg/kg/injection, schedule: Q01DX001 (ip), vehicle: other 96 % of control | endpoint: mean survival time, dose: 300.0 mg/kg/injection, schedule: Q01DX001 (ip), vehicle: other 97 % of control

NC(N)=NCCN=C(N)N
inactive: endpoint: mean survival time, dose: 100.0 mg/kg/injection, schedule: Q01DX001 (ip), vehicle: saline 105 % of control | endpoint: mean survival time, dose: 200.0 mg/kg/injection, schedule: Q01DX001 (ip), vehicle: saline 94 % of control | endpoint: mean survival time, dose: 400.0 mg/kg/injection, schedule: Q01DX001 (ip), vehicle: saline 100 % of control

OCC1OC(n2nnc3cc[nH]c(=S)c32)C(O)C1O (centres undefined)
inactive: endpoint: mean survival time, dose: 11.9 mg/kg/injection, schedule: Q01DX005 (ip), vehicle: water 96 % of control | endpoint: mean survival time, dose: 23.8 mg/kg/injection, schedule: Q01DX005 (ip), vehicle: water 113 % of control

O=S(CCO)c1c(Cl)c(Cl)c(Cl)c(Cl)c1Cl (centres undefined)
inactive: [8] 94 % of control | [9] 94 % of control

CCCN(CCC)c1c([N+](=O)[O-])cc(C(N)=O)cc1[N+](=O)[O-]
inactive: endpoint: mean survival time, dose: 12.5 mg/kg/injection, schedule: Q01DX009 (ip), vehicle: saline with Tween-80 96 % of control | endpoint: mean survival time, dose: 25.0 mg/kg/injection, schedule: Q01DX009 (ip), vehicle: saline with Tween-80 96 % of control | [10] 90 % of control

c1cc2c3c(cccc3c1)N=S=N2
inactive: [2] 89 % of control | [4] 89 % of control | [6] 86 % of control

CC(C)NCc1ccc2c(c1)OCO2
inactive: endpoint: mean survival time, dose: 75.0 mg/kg/injection, schedule: Q01DX001 (ip), vehicle: saline 98 % of control | endpoint: mean survival time, dose: 150.0 mg/kg/injection, schedule: Q01DX001 (ip), vehicle: saline 101 % of control

CC(=O)OC1CCC2(C)C(=CCC3C4CC(C=O)=C(Cl)NC4(C)CCC32)C1 (centres undefined)
inactive: endpoint: mean survival time, dose: 25.0 mg/kg/injection, schedule: Q01DX001 (ip), vehicle: saline with Tween-80 98 % of control | endpoint: mean survival time, dose: 50.0 mg/kg/injection, schedule: Q01DX001 (ip), vehicle: saline with Tween-80 95 % of control | [11] 92 % of control and 101 % of control | [12] 87 % of control

CCCCCCCCC(=O)NCCCNC(=O)CCCCCCCC
inactive: endpoint: mean survival time, dose: 75.0 mg/kg/injection, schedule: Q04DX003 (ip), vehicle: saline 88 % of control | endpoint: mean survival time, dose: 150.0 mg/kg/injection, schedule: Q04DX003 (ip), vehicle: saline 88 % of control | endpoint: mean survival time, dose: 300.0 mg/kg/injection, schedule: Q04DX003 (ip), vehicle: saline 103 % of control

CCCCCCCCCCCCOc1ccc(Sc2ccc(OCCCCCCCCCCCC)cc2C)c(C)c1
inactive: [11] 86 % of control

CSc1nc(NC2OC(CO)C(O)C(O)C2O)c(I)c(=O)n1C (centres undefined)
inactive: endpoint: median survival time, dose: 12.5 mg/kg/injection, schedule: Q01DX005 (ip), vehicle: saline with Tween-80 100 % of control | endpoint: median survival time, dose: 25.0 mg/kg/injection, schedule: Q01DX005 (ip), vehicle: saline with Tween-80 100 % of control | endpoint: median survival time, dose: 50.0 mg/kg/injection, schedule: Q01DX005 (ip), vehicle: saline with Tween-80 103 % of control | endpoint: median survival time, dose: 100.0 mg/kg/injection, schedule: Q01DX005 (ip), vehicle: saline with Tween-80 107 % of control | endpoint: median survival time, dose: 200.0 mg/kg/injection, schedule: Q01DX005 (ip), vehicle: saline with Tween-80 119 % of control

CCCCCC/C=N/[N+](C)(C)C
inactive: endpoint: mean survival time, dose: 12.5 mg/kg/injection, schedule: Q01DX009 (ip), vehicle: saline 114 % of control | endpoint: mean survival time, dose: 25.0 mg/kg/injection, schedule: Q01DX009 (ip), vehicle: saline 101 % of control | endpoint: mean survival time, dose: 50.0 mg/kg/injection, schedule: Q01DX009 (ip), vehicle: saline 101 % of control and 107 % of control

O=C1CSC(=S)N1/N=C/c1ccc(Cl)c([N+](=O)[O-])c1
inactive: [1] 92 % of control | [2] 92 % of control | [3] 100 % of control | [4] 95 % of control | [5] 90 % of control | [6] 86 % of control

CC(=N)N(C)CC(=O)O
inactive: endpoint: mean survival time, dose: 100.0 mg/kg/injection, schedule: Q04DX002 (ip), vehicle: saline 103 % of control | endpoint: mean survival time, dose: 200.0 mg/kg/injection, schedule: Q04DX002 (ip), vehicle: saline 103 % of control | endpoint: mean survival time, dose: 400.0 mg/kg/injection, schedule: Q04DX002 (ip), vehicle: saline 100 % of control

CCCCCCCCCCCCCCCC(=O)Nc1c(C)cccc1C
inactive: [8] 100 % of control | [9] 91 % of control | endpoint: mean survival time, dose: 400.0 mg/kg/injection, schedule: Q04DX002 (ip), vehicle: saline with Tween-80 95 % of control

FC(F)(F)c1cccc(NC2=NCCO2)c1
inactive: [11] 92 % of control | [13] 93 % of control | [12] 91 % of control

C=CC1CC2CC(C1C)C2(C)C (centres undefined)
inactive: [10] 96 % of control | [1] 100 % of control | [3] 104 % of control

Nc1nc(=O)n(CCCOc2cccc(Cl)c2)cc1-c1ccc(Cl)c(Cl)c1
inactive: [11] 96 % of control | [13] 89 % of control | [12] 91 % of control

CCC12CCCN=C1c1c([nH]c3ccccc13)CC2 (centres undefined)
inactive: endpoint: mean survival time, dose: 6.25 mg/kg/injection, schedule: Q04DX002 (ip), vehicle: saline with Tween-80 102 % of control | endpoint: mean survival time, dose: 12.5 mg/kg/injection, schedule: Q04DX002 (ip), vehicle: saline with Tween-80 104 % of control | [7] 98 % of control

C[n+]1ccc2ccccc2c1SC1CCC2CC3CC2C1C3 (centres undefined)
inactive: endpoint: mean survival time, dose: 10.0 mg/kg/injection, schedule: Q01DX009 (iv), vehicle: methylcellulose (MC) 97 % of control | endpoint: mean survival time, dose: 20.0 mg/kg/injection, schedule: Q01DX009 (iv), vehicle: methylcellulose (MC) 97 % of control

— PubChem BioAssay AID256 (DTP/NCI, 2004)
